From PMC8154557 (Journal of Medicinal Chemistry, 2021) come the findings set out here.

A word on the IC50: it is the concentration at which inhibition is half-maximal. Higher therefore signals lower potency.

Data set [1] relates to T84 cells. Kind of data set: TEER measurement of epithelial integrity. Particulars: 10%, positive control, 24 h.
Data set [2] concerns T84 cells. Description: Viability MTT assay. To be noted: 10%, positive control, 24 h. (In general: Tetrazolium dyes change colour on reduction, which living cells bring about.)
The next data set has as its target Stx1B (Shigella dysenteriae, UniProt Q7BQ98). Description: biochemical. The format is binding, Escherichia coli.

Chain of Stx1B (Q7BQ98 21-89 limits assumed): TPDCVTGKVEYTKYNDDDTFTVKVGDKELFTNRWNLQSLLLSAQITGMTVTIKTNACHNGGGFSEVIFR

In the case of `CCO` [ethanol], the “transepithelial electrical resistance (TEER) values” with T84 cells [1] was “strongly decreased”. For the same molecule, the “T84 cell viability (MTT)” value in the data set on T84 cells [2] is recorded as “significantly reduced”. For the molecule `O=C(O)c1cc(OCc2cn([C@@H]3O[C@H](CO)[C@H](O[C@H]4O[C@H](CO)[C@H](O)[C@H](O)[C@H]4O)[C@H](O)[C@H]3O)nn2)cc(OCc2cn([C@@H]3O[C@H](CO)[C@H](O[C@H]4O[C@H](CO)[C@H](O)[C@H](O)[C@H]4O)[C@H](O)[C@H]3O)nn2)c1` [Compound 3], at Stx1B, the “rel. pot. per sugar” value is 2.3 and the rel.pot. is recorded as 4.6. On Stx1B (IC50), this molecule showed an IC50 of 1000 µM. As for `OC[C@H]1O[C@@H](O[C@H]2[C@H](O)[C@@H](O)C(O)O[C@@H]2CO)[C@H](O)[C@@H](O)[C@H]1O` (mixture of isomers) [Lactose, reference compound], on Stx1B, the “inhibition of the toxin (in words)” value is on record as “did not show any activity”. Take `O=C(O)c1cc(OCCNC(=O)c2cc(OCc3cn([C@@H]4O[C@H](CO)[C@H](O[C@H]5O[C@H](CO)[C@H](O)[C@H](O)[C@H]5O)[C@H](O)[C@H]4O)nn3)cc(OCc3cn([C@@H]4O[C@H](CO)[C@H](O[C@H]5O[C@H](CO)[C@H](O)[C@H](O)[C@H]5O)[C@H](O)[C@H]4O)nn3)c2)cc(OCCNC(=O)c2cc(OCc3cn([C@@H]4O[C@H](CO)[C@H](O[C@H]5O[C@H](CO)[C@H](O)[C@H](O)[C@H]5O)[C@H](O)[C@H]4O)nn3)cc(OCc3cn([C@@H]4O[C@H](CO)[C@H](O[C@H]5O[C@H](CO)[C@H](O)[C@H](O)[C@H]5O)[C@H](O)[C@H]4O)nn3)c2)c1` [Compound 5]: at Stx1B, the “rel. pot. per sugar” value turned out to be 62.5 and the rel.pot. stood at 250. On to `O=C(NCCOc1cc(OCCNC(=O)OCc2cn([C@@H]3O[C@H](CO)[C@H](O[C@H]4O[C@H](CO)[C@H](O)[C@H](O)[C@H]4O)[C@H](O)[C@H]3O)nn2)cc(C(=O)O)c1)OCc1cn([C@@H]2O[C@H](CO)[C@H](O[C@H]3O[C@H](CO)[C@H](O)[C@H](O)[C@H]3O)[C@H](O)[C@H]2O)nn1` [Compound 4], for which, on Stx1B, the “rel. pot. per sugar” value is reported as 2 and the rel.pot. is 4.

For the molecule `[N-]=[N+]=N[C@@H]1O[C@H](CO)[C@H](O[C@H]2O[C@H](CO)[C@H](O)[C@H](O)[C@H]2O)[C@H](O)[C@H]1O` [Compound 1e], the “rel. pot. per sugar” value on Stx1B is recorded as 1. `O=C(NCCCCCCCCCCCCNC(=O)c1cc(OCc2cn([C@@H]3O[C@H](CO)[C@H](O[C@H]4O[C@H](CO)[C@H](O)[C@H](O)[C@H]4O)[C@H](O)[C@H]3O)nn2)cc(OCc2cn([C@@H]3O[C@H](CO)[C@H](O[C@H]4O[C@H](CO)[C@H](O)[C@H](O)[C@H]4O)[C@H](O)[C@H]3O)nn2)c1)c1cc(OCc2cn([C@@H]3O[C@H](CO)[C@H](O[C@H]4O[C@H](CO)[C@H](O)[C@H](O)[C@H]4O)[C@H](O)[C@H]3O)nn2)cc(OCc2cn([C@@H]3O[C@H](CO)[C@H](O[C@H]4O[C@H](CO)[C@H](O)[C@H](O)[C@H]4O)[C@H](O)[C@H]3O)nn2)c1` [Compound 6]: at Stx1B, the “rel. pot. per sugar” value worked out at 92 and the rel.pot. is given as 367.
